Data as given in patent publication US11767341B2, “Lincosamide antibiotics and uses thereof” (President and Fellows of Harvard College, priority 2017, dated 2023).
Values after ≈ are worked out from the molar mass of the structure shown. Like-named read-outs stand apart in the source and are kept apart here.

How the values were obtained:
Assay in all cases: MIC determination
Format in all cases: cell-based
[1] = tested on: P. aeruginosa ATCC 27853; conditions: Pseudomonas aeruginosa, ATCC27853
[2] = tested on: S. aureus BAA 977 iErmA; conditions: Staphylococcus aureus, BAA977
[3] = tested on: S. pyogenes ATCC 19615; conditions: Streptococcus pyogenes, ATCC19615; S. pyogenes ATCC 19615; read-out: MIC
[4] = tested on: S. pneumoniae MMX 3031 cMefA; conditions: Streptococcus pneumoniae, MMX3031CMEFA
[5] = tested on: S. aureus Micromyx USA 300; conditions: Staphylococcus aureus, USA300; S. aureus Micromyx USA 300; read-out: MIC
[6] = tested on: E. faecalis ATCC 29212; conditions: Enterococcus faecalis
[7] = tested on: S. aureus MMX 3035 cErmA; conditions: Staphylococcus aureus, MMX3035CERMA
[8] = tested on: S. pneumoniae MMX 3028 cErmB; conditions: Streptococcus pneumoniae, MMX3028CERMB
[9] = tested on: E. coli ATCC 25922; conditions: Escherichia coli
[10] = tested on: P. aeruginosa MMX 3476 Δmex; conditions: Pseudomonas aeruginosa
[11] = tested on: H. influenzae ATCC 49247; conditions: Haemophilus influenzae, ATCC49247
[12] = tested on: B. fragilis ATCC 25285; conditions: Bacteroides fragilis, ATCC25285
[13] = tested on: E. coli MMX TolC parent strain; conditions: Escherichia coli
[14] = tested on: P. aeruginosa MMX Mex parent strain; conditions: Pseudomonas aeruginosa
[15] = tested on: S. aureus ATCC 29213; conditions: Staphylococcus aureus
[16] = tested on: S. pyogenes MMX 946 Macrolide-Resistant; conditions: Streptococcus pyogenes
[17] = tested on: E. coli MMX 0121 ΔTolC; conditions: Escherichia coli
[18] = tested on: S. pneumoniae ATCC 49619; conditions: Streptococcus pneumoniae, ATCC49619
[19] = tested on: C. difficile BAA 1805; conditions: Clostridioides difficile, BAA1805
[20] = tested on: E. faecalis MMX 847 Macrolide-Resistant; conditions: Enterococcus faecalis
[21] = tested on: E. coli MP-74 LptD mutant; conditions: Escherichia coli
[22] = tested on: E. coli MP-9 ΔTolC; conditions: Escherichia coli
[23] = tested on: K. pneumoniae ATCC 10031; conditions: Klebsiella pneumoniae, ATCC10031
[24] = tested on: S. aureus MP-549 msr(a) USA 300; conditions: Staphylococcus aureus, USA300, S. aureus MP-549 msr(a) USA 300
[25] = ATCC29213, S. aureus ATCC 29213, read-out: MIC
[26] = S. pneumoniae ATCC 49619, read-out: MIC
[27] = S. aureus MMX 3035 cErmA, read-out: MIC
[28] = ATCC25922, E. coli ATCC 25922, read-out: MIC
[29] = H. influenzae ATCC 49247, read-out: MIC
[30] = S. pyogenes MMX 946 Macrolide-Resistant (MacRes), read-out: MIC
[31] = E. faecalis MMX 847 Macrolide-Resistant (MacRes), read-out: MIC
[32] = S. pneumoniae MMX 3028 cErmB, read-out: MIC
[33] = K. pneumoniae ATCC 10031, read-out: MIC
[34] = S. pyogenes MMX 946 MacRes, read-out: MIC
[35] = E. faecalis MMX 847 MacRes, read-out: MIC

SMILES	MIC [2] [µg/mL]	MIC [3] [µg/mL]	MIC [4] [µg/mL]	MIC ([6]; ATCC29212, read-out: MIC) [µg/mL]	MIC [8] [µg/mL]	MIC ([9]; ATCC25922) [µg/mL]	MIC [11] [µg/mL]	MIC [15, 25] [µg/mL]	MIC [18, 26] [µg/mL]	MIC [21] [µg/mL]	MIC [22] [µg/mL]	MIC [23] [µg/mL]	MIC [24] [µg/mL]	MIC [7, 27] [µg/mL]	MIC [9, 28] [µg/mL]	MIC [11, 29] [µg/mL]	MIC [16, 30] [µg/mL]	MIC [20, 31] [µg/mL]	MIC [8, 32] [µg/mL]	MIC [23, 33] [µg/mL]	also measured
CSC1O[C@H]([C@H](NC(=O)[C@H]2NC[C@@H]3C=C(c4ccc(F)cc4)CCO[C@@H]23)[C@H](C)Cl)C(O)[C@@H](O)[C@H]1O (stereo partly shown) [FSA-507052]	2 (≈ 3.77 µM)	0.25 (≈ 0.471 µM)	0.12 (≈ 0.226 µM)	1 (≈ 1.88 µM)	> 32	> 32	> 32	2 (≈ 3.77 µM)	0.25 (≈ 0.471 µM)	–	–	–	–	–	–	–	–	–	–	–	MIC [1]: > 32 µg/mL; MIC [5]: 0.5 µg/mL (≈ 0.942 µM); MIC [7]: > 32 µg/mL; MIC [10]: > 32 µg/mL; MIC [12]: > 32 µg/mL; MIC [13]: > 32 µg/mL; MIC [14]: > 32 µg/mL; MIC [16]: > 32 µg/mL; MIC [17]: > 32 µg/mL; MIC ([19]; C. difficile BAA 1805, read-out: MIC): 16 µg/mL (≈ 30.1 µM); MIC [20]: > 32 µg/mL
CSC1O[C@H]([C@H](NC(=O)[C@H]2NC[C@@H]3CC(N)CCO[C@H]32)[C@H](C)Cl)C(O)[C@@H](O)[C@H]1O (stereo partly shown) [FSA-510012]	> 64	32 (≈ 70.5 µM)	–	–	–	> 64	> 64	–	–	> 64	> 64	> 64	> 64	–	–	–	–	–	–	–	MIC ([6]; ATCC29212): > 64 µg/mL; MIC ([15]; ATCC29213): > 64 µg/mL; MIC [18]: > 64 µg/mL; MIC [19]: > 64 µg/mL
CSC1O[C@H]([C@H](NC(=O)[C@H]2NC[C@@H]3C=C(c4ccccc4F)CCO[C@@H]23)[C@H](C)Cl)C(O)[C@@H](O)[C@H]1O (stereo partly shown) [FSA-511073]	1 (≈ 1.88 µM)	0.25 (≈ 0.471 µM)	0.12 (≈ 0.226 µM)	4 (≈ 7.53 µM)	64 (≈ 121 µM)	–	–	1 (≈ 1.88 µM)	0.12 (≈ 0.226 µM)	64 (≈ 121 µM)	64 (≈ 121 µM)	64 (≈ 121 µM)	1 (≈ 1.88 µM)	> 64	> 64	> 64	> 64	> 64	–	–	–
CSC1O[C@H]([C@H](NC(=O)[C@H]2NC[C@@H]3C=C(c4ccc(F)cc4F)CCO[C@@H]23)[C@H](C)Cl)C(O)[C@@H](O)[C@H]1O (stereo partly shown) [FSA-511072]	1 (≈ 1.82 µM)	0.25 (≈ 0.455 µM)	0.12 (≈ 0.219 µM)	4 (≈ 7.29 µM)	64 (≈ 117 µM)	–	–	1 (≈ 1.82 µM)	0.12 (≈ 0.219 µM)	64 (≈ 117 µM)	32 (≈ 58.3 µM)	32 (≈ 58.3 µM)	1 (≈ 1.82 µM)	> 64	> 64	> 64	> 64	> 64	–	–	–
CNC1CCO[C@@H]2[C@H](CN[C@@H]2C(=O)N[C@H]([C@H](C)Cl)[C@H]2OC(SC)[C@H](O)[C@H](O)C2O)C1 (stereo partly shown) [FSA-510065]	> 64	32 (≈ 68.4 µM)	–	–	–	> 64	> 64	–	–	> 64	> 64	> 64	> 64	–	–	–	–	–	–	–	MIC ([6]; ATCC29212): > 64 µg/mL; MIC ([15]; ATCC29213): > 64 µg/mL; MIC [18]: > 64 µg/mL; MIC [19]: > 64 µg/mL
CSC1O[C@H]([C@H](NC(=O)[C@H]2NC[C@@H]3C[C@@H](c4ccc(F)cc4F)CCO[C@H]32)[C@H](C)Cl)C(O)[C@@H](O)[C@H]1O (stereo partly shown) [FSA-511078]	0.25 (≈ 0.454 µM)	≤ 0.06	≤ 0.06	0.25 (≈ 0.454 µM)	–	–	–	0.25 (≈ 0.454 µM)	≤ 0.06	8 (≈ 14.5 µM)	2 (≈ 3.63 µM)	–	0.12 (≈ 0.218 µM)	> 64	> 64	16 (≈ 29 µM)	–	–	4 (≈ 7.26 µM)	8 (≈ 14.5 µM)	MIC [16, 34]: 16 µg/mL (≈ 29 µM); MIC [20, 35]: 64 µg/mL (≈ 116 µM)
CSC1O[C@H]([C@H](NC(=O)[C@H]2NC[C@@H]3C[C@@H](CCc4ccccc4)CCO[C@H]32)[C@H](C)Cl)C(O)[C@@H](O)[C@H]1O (stereo partly shown) [FSA-510021]	0.125 (≈ 0.23 µM)	≤ 0.06	≤ 0.06	0.25 (≈ 0.46 µM)	–	–	–	0.125 (≈ 0.23 µM)	≤ 0.06	4 (≈ 7.36 µM)	4 (≈ 7.36 µM)	–	0.125 (≈ 0.23 µM)	4 (≈ 7.36 µM)	64 (≈ 118 µM)	1 (≈ 1.84 µM)	–	–	4 (≈ 7.36 µM)	4 (≈ 7.36 µM)	MIC [16, 34]: 1 µg/mL (≈ 1.84 µM); MIC [20, 35]: 4 µg/mL (≈ 7.36 µM)
CSC1O[C@H]([C@H](NC(=O)[C@@H]2[C@@H]3OCC=CC[C@H]3CN2C)[C@H](C)Sc2ccc(-c3cccnc3)cc2)C(O)[C@@H](O)[C@H]1O (stereo partly shown) [FSA-213064]	0.25 (≈ 0.415 µM)	≤ 0.125	0.125 (≈ 0.208 µM)	32 (≈ 53.2 µM)	–	–	–	0.25 (≈ 0.415 µM)	≤ 0.125	–	16 (≈ 26.6 µM)	–	0.25 (≈ 0.415 µM)	–	> 64	–	2 (≈ 3.32 µM)	> 64	8 (≈ 13.3 µM)	64 (≈ 106 µM)	MIC ([1]; P. aeruginosa ATCC 27853, read-out: MIC): > 64 µg/mL; MIC [7]: 16 µg/mL (≈ 26.6 µM)
CSC1O[C@H]([C@H](NC(=O)[C@H]2NC[C@@H]3C=C(c4cc(F)cc(F)c4)CCO[C@@H]23)[C@H](C)Cl)C(O)[C@@H](O)[C@H]1O (stereo partly shown) [FSA-511074]	2 (≈ 3.64 µM)	0.5 (≈ 0.911 µM)	0.25 (≈ 0.455 µM)	4 (≈ 7.29 µM)	64 (≈ 117 µM)	–	–	2 (≈ 3.64 µM)	0.25 (≈ 0.455 µM)	64 (≈ 117 µM)	64 (≈ 117 µM)	64 (≈ 117 µM)	1 (≈ 1.82 µM)	> 64	> 64	> 64	> 64	> 64	–	–	–
